Counter-ions that a name gives are not always drawn.
Target: human GlyT1c transporter (Homo sapiens (Human), UniProt P48067)
Test: Radioligand binding assays using recombinant CHO cell membranes expressing human GlyT1
Conditions: read-out: radioligand binding Kiapp
Description: Radioligand binding to human GlyT1c transporter-expressing membranes was determined as described in Mezler et al., Molecular Pharmacology 74:1705-1715, 2008.

Chain of human GlyT1c transporter (P48067 whole entry): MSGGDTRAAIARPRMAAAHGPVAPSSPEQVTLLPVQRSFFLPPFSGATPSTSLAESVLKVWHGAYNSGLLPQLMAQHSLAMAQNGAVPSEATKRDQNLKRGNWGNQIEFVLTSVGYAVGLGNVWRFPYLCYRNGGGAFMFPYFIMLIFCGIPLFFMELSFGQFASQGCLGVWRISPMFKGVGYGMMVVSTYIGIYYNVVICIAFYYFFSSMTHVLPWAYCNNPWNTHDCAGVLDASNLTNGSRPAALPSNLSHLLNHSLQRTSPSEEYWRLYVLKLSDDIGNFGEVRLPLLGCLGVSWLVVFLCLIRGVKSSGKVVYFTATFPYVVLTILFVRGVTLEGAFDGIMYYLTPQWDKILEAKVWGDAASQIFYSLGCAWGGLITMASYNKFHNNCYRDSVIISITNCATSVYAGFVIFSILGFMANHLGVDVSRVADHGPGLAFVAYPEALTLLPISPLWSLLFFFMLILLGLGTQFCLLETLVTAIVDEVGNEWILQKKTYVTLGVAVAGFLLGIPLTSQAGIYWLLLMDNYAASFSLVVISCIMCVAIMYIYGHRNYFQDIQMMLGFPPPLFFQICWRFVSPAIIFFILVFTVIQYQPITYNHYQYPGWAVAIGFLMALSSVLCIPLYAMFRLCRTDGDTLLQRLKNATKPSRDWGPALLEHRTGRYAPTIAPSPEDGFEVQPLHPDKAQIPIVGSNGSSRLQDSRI

For Cn1cnc(S(=O)(=O)NCCOc2ccc(F)c(C(CN)Cc3ccccc3)c2)c1 (stereo not shown) [Example 1, 1-Methyl-1H-imidazole-4-sulfonic acid {2-[3-(2-amino-1-benzyl-ethyl)-4-fluoro-phenoxy]-ethyl}-amide hydrochloride], the Ki was at most 1000 nM.
Cn1cc(S(=O)(=O)NCCOc2cccc(C(CN)Cc3cccc(Cl)c3)c2)cn1 (stereo not shown) [Example 2, 1-Methyl-1H-pyrazole-4-sulfonic acid (2-{3-[2-amino-1-(3-chloro-benzyl)ethyl]-phenoxy}-ethyl)-amide, hydrochloride] showed a Ki of at most 1000 nM.
For Cn1cc(S(=O)(=O)NCCOc2cc(C(CN)Cc3ccccc3)ccc2F)cn1 (stereo not shown) [Example 3, 1-Methyl-1H-pyrazole-4-sulfonic acid {2-[5-(2-amino-1-benzyl-ethyl)-2-fluoro-phenoxy]-ethyl}-amide, hydrochloride], the Ki was at most 100 nM.
In the case of Cn1cnc(S(=O)(=O)NCCOc2cc(C(CN)Cc3ccccc3)ccc2F)c1 (stereo not shown) [Example 4, 1-Methyl-1H-imidazole-4-sulfonic acid {2-[5-(2-amino-1-benzyl-ethyl)-2-fluoro-phenoxy]-ethyl}-amide, hydrochloride], the Ki is reported as at most 100 nM.
In the case of Cn1cnc(S(=O)(=O)NCCOc2cccc(C(CN)Cc3ccccc3)c2)c1 (stereo not shown) [Example 5, 1-Methyl-1H-imidazole-4-sulfonic acid {2-[3-(2-amino-1-benzyl-ethyl)phenoxy]-ethyl}-amide], the Ki is reported as at most 100 nM.
For Cn1cc(S(=O)(=O)NCCOc2cccc(C(CN)Cc3ccccc3)c2)cn1 (stereo not shown) [Example 6, 1-Methyl-1H-pyrazole-4-sulfonic acid {2-[3-(2-amino-1-benzyl-ethyl)-phenoxy]-ethyl}-amide, hydrochloride], the Ki was at most 100 nM.
Cn1cc(S(=O)(=O)NCCOc2cccc(C(CN)Cc3cc(F)cc(F)c3)c2)cn1 (stereo not shown) [Example 7, 1-Methyl-1H-pyrazole-4-sulfonic acid (2-{3-[2-amino-1-(3,5-difluoro-benzyl)ethyl]-phenoxy}-ethyl)-amide, hydrochloride] was tested, and the Ki was at most 1000 nM.
Cn1cc(S(=O)(=O)NCCOc2cccc(C(CN)Cc3ccc(Cl)cc3)c2)cn1 (stereo not shown) [Example 8, 1-Methyl-1H-pyrazole-4-sulfonic acid (2-{3-[2-amino-1-(4-chloro-benzyl)ethyl]-phenoxy}-ethyl)-amide, hydrochloride] was tested, and the Ki was at most 1000 nM.
For Cn1cnc(S(=O)(=O)NCCOc2cccc(C(CN)Cc3cccc(Cl)c3)c2)c1 (stereo not shown) [Example 9, 1-Methyl-1H-imidazole-4-sulfonic acid (2-{3-[2-amino-1-(3-chloro-benzyl)ethyl]-phenoxy}-ethyl)-amide, hydrochloride], the Ki was at most 1000 nM.
In the case of Cn1cc(S(=O)(=O)NCCOc2cccc(C(CN)Cc3cccc(C(F)(F)F)c3)c2)cn1 (stereo not shown) [Example 10, 1-Methyl-1H-pyrazole-4-sulfonic acid (2-{3-[2-amino-1-(3-trifluoromethylbenzyl)-ethyl]-phenoxy}-ethyl)-amide, hydrochloride], the Ki is reported as at most 100 nM.
For Cn1cnc(S(=O)(=O)NCCOc2cccc(C(CN)Cc3cc(F)cc(F)c3)c2)c1 (stereo not shown) [Example 11, 1-Methyl-1H-imidazole-4-sulfonic acid (2-{3-[2-amino-1-(3,5-difluoro-benzyl)ethyl]-phenoxy}-ethyl)-amide, hydrochloride], the Ki was at most 1000 nM.
In the case of Cn1cnc(S(=O)(=O)NCCOc2cccc(C(CN)Cc3cccc(C(F)(F)F)c3)c2)c1 (stereo not shown) [Example 12, 1-Methyl-1H-imidazole-4-sulfonic acid (2-{3-[2-amino-1-(3-trifluoromethylbenzyl)-ethyl]-phenoxy}-ethyl)-amide, hydrochloride], the Ki is reported as at most 100 nM.
Molecule NCC(Cc1ccccc1)c1cccc(CNS(=O)(=O)CC2CC2)c1 (stereo not shown) [Example 14, N-[3-(2-Amino-1-benzyl-ethyl)-benzyl]-C-cyclopropyl-methanesulfonamide] has a Ki of at most 10000 nM.
Cn1cc(S(=O)(=O)NCc2cccc(C(Cc3ccccc3)C(N)=O)c2)cn1 (stereo not shown) [Example 15, 2-{3-[(1-Methyl-1H-pyrazole-4-sulfonylamino)-methyl]-phenyl}-3-phenyl-propionamide] was tested, and the Ki was at most 10000 nM.
Cn1cnc(S(=O)(=O)NCc2cccc(C(Cc3ccccc3)C(N)=O)c2)c1 (stereo not shown) [Example 16, 2-{3-[(1-Methyl-1H-imidazole-4-sulfonylamino)-methyl]-phenyl}-3-phenyl-propionamide] was tested, and the Ki was at most 10000 nM.
Cn1cnc(S(=O)(=O)NCc2cccc(C(Cc3ccccc3)C(=O)N3CCOCC3)c2)c1 (stereo not shown) [Example 17, 1-Methyl-1H-imidazole-4-sulfonic acid 3-(1-benzyl-2-morpholin-4-yl-2-oxo-ethyl)-benzylamide] gave a Ki of at most 10000 nM.
In the case of Cn1cc(S(=O)(=O)NCc2cccc(C(CN)Cc3ccccc3)c2)cn1 (stereo not shown) [Example 18, 1-Methyl-1H-pyrazole-4-sulfonic acid 3-(2-amino-1-benzyl-ethyl)benzylamide, hydrochloride], the Ki is reported as at most 100 nM.
Cn1cnc(S(=O)(=O)NCc2cccc(C(CN)Cc3ccccc3)c2)c1 (stereo not shown) [Example 19, 1-Methyl-1H-imidazole-4-sulfonic acid 3-(2-amino-1-benzyl-ethyl)benzylamide, hydrochloride] showed a Ki of at most 1000 nM.
Work on Cn1cnc(S(=O)(=O)NCc2cccc(C(Cc3ccccc3)CN3CCOCC3)c2)c1 (stereo not shown) [Example 20, 1-Methyl-1H-imidazole-4-sulfonic acid 3-(1-benzyl-2-morpholin-4-yl-ethyl)benzylamide] yielded a Ki of at most 10000 nM.
Cn1cc(S(=O)(=O)NCc2cccc(C(Cc3ccccc3)CN3CCOCC3)c2)cn1 (stereo not shown) [Example 21, 1-Methyl-1H-pyrazole-4-sulfonic acid 3-(1-benzyl-2-morpholin-4-yl-ethyl)benzylamide] showed a Ki of at most 1000 nM.
For O=S(=O)(CC1CC1)NCc1cccc(C(Cc2ccccc2)CN2CCOCC2)c1 (stereo not shown) [Example 22, N-[3-(1-Benzyl-2-morpholin-4-yl-ethyl)-benzyl]-C-cyclopropyl-methanesulfonamide, hydrochloride], the Ki was at most 10000 nM.
CN(C)CC(Cc1ccccc1)c1cc(OCCNS(=O)(=O)c2cn(C)cn2)ccc1F (stereo not shown) [Example 23, 1-Methyl-1H-imidazole-4-sulfonic acid {2-[3-(1-benzyl-2-dimethylamino-ethyl)-4-fluoro-phenoxy]-ethyl}-amide] was tested, and the Ki was at most 100 nM.
CN(C)CC(Cc1ccccc1)c1cccc(OCCNS(=O)(=O)c2cnn(C)c2)c1 (stereo not shown) [Example 24, 1-Methyl-1H-pyrazole-4-sulfonic acid {2-[3-(1-benzyl-2-dimethylamino-ethyl)phenoxy]-ethyl}-amide] gave a Ki of at most 100 nM.
In the case of CN(C)CC(Cc1ccccc1)c1cccc(OCCNS(=O)(=O)c2cn(C)cn2)c1 (stereo not shown) [Example 25, 1-Methyl-1H-imidazole-4-sulfonic acid {2-[3-(1-benzyl-2-dimethylaminoethyl)-phenoxy]-ethyl}-amide], the Ki is reported as at most 1000 nM.
With CN(C)CC(Cc1ccccc1)c1cccc(CNS(=O)(=O)c2cn(C)cn2)c1 (stereo not shown) [Example 26, 1-Methyl-1H-imidazole-4-sulfonic acid 3-(1-benzyl-2-dimethylamino-ethyl)benzylamide] the Ki was at most 1000 nM.
Work on CN(C)CC(Cc1ccccc1)c1cccc(CNS(=O)(=O)c2cnn(C)c2)c1 (stereo not shown) [Example 27, 1-Methyl-1H-pyrazole-4-sulfonic acid 3-(1-benzyl-2-dimethylamino-ethyl)benzylamide] yielded a Ki of at most 1000 nM.
With CN(C)CC(Cc1cccc(C(F)(F)F)c1)c1cccc(OCCNS(=O)(=O)c2cnn(C)c2)c1 (stereo not shown) [Example 28, 1-Methyl-1H-pyrazole-4-sulfonic acid (2-{3-[2-dimethylamino-1-(3-trifluoromethyl-benzyl)-ethyl]-phenoxy}-ethyl)-amide] the Ki was at most 100 nM.
CN(C)CC(Cc1cccc(C(F)(F)F)c1)c1cccc(OCCNS(=O)(=O)c2cn(C)cn2)c1 (stereo not shown) [Example 29, 1-Methyl-1H-imidazole-4-sulfonic acid (2-{3-[2-dimethylamino-1-(3-trifluoromethyl-benzyl)-ethyl]-phenoxy}-ethyl)-amide] gave a Ki of at most 100 nM.
CN(C)CC(Cc1ccccc1)c1cc(OCCNS(=O)(=O)c2cnn(C)c2)ccc1Cl (stereo not shown) [Example 30, 1-Methyl-1H-pyrazole-4-sulfonic acid {2-[3-(1-benzyl-2-dimethylamino-ethyl)-4-chloro-phenoxy]-ethyl}-amide, hydrochloride] was tested, and the Ki was at most 100 nM.
Work on CN(C)CC(Cc1ccccc1)c1ccc(F)c(OCCNS(=O)(=O)c2cnn(C)c2)c1 (stereo not shown) [Example 31, 1-Methyl-1H-pyrazole-4-sulfonic acid {2-[5-(1-benzyl-2-dimethylamino-ethyl)-2-fluoro-phenoxy]-ethyl}-amide] yielded a Ki of at most 100 nM.
Molecule CN(C)CC(Cc1ccccc1)c1ccc(F)c(OCCNS(=O)(=O)c2cn(C)cn2)c1 (stereo not shown) [Example 32, 1-Methyl-1H-imidazole-4-sulfonic acid {2-[5-(1-benzyl-2-dimethylamino-ethyl)-2-fluoro-phenoxy]-ethyl}-amide] has a Ki of at most 100 nM.
For CN(C)CC(Cc1ccccc1)c1cc(OCCNS(=O)(=O)c2cnn(C)c2)ccc1F (stereo not shown) [Example 33, 1-Methyl-1H-pyrazole-4-sulfonic acid {2-[3-(1-benzyl-2-dimethylamino-ethyl)-4-fluoro-phenoxy]-ethyl}-amide], the Ki was at most 100 nM.
Cn1cc(S(=O)(=O)NCCOc2cccc(C(Cc3ccccc3)CN3CCCC3)c2)cn1 (stereo not shown) [Example 34, 1-Methyl-1H-pyrazole-4-sulfonic acid {2-[3-(1-benzyl-2-pyrrolidin-1-yl-ethyl)phenoxy]-ethyl}-amide] showed a Ki of at most 1000 nM.
Cn1cnc(S(=O)(=O)NCCOc2cccc(C(Cc3ccccc3)CN3CCCC3)c2)c1 (stereo not shown) [Example 35, 1-Methyl-1H-imidazole-4-sulfonic acid {2-[3-(1-benzyl-2-pyrrolidin-1-yl-ethyl)phenoxy]-ethyl}-amide] was tested, and the Ki was at most 1000 nM.
Work on Cn1cc(S(=O)(=O)NCCOc2cccc(C(Cc3ccccc3)CN3CCC3)c2)cn1 (stereo not shown) [Example 36] yielded a Ki of at most 1000 nM.
Cn1cc(S(=O)(=O)NCc2cccc(C(Cc3ccccc3)CN3CCC3)c2)cn1 (stereo not shown) [Example 37, 1-Methyl-1H-pyrazole-4-sulfonic acid 3-(2-azetidin-1-yl-1-benzyl-ethyl)benzylamide, hydrochloride] was tested, and the Ki was at most 1000 nM.
Molecule CN(Cc1cccc(C(CNC(=O)OC(C)(C)C)C2(c3ccc(Cl)cc3)CCC2)c1)S(=O)(=O)c1cnn(C)c1 (stereo not shown) [Example 39, tert-Butyl {2-[1-(4-chlorophenyl)cyclobutyl]-2-[3-({methyl[(1-methyl-1H-pyrazol-4-yl)sulfonyl]amino}methyl)phenyl]ethyl}carbamate] has a Ki of at most 10000 nM.

— US9238619B2, “Phenalkylamine derivatives, pharmaceutical compositions containing them, and their use in therapy” (AbbVie Deutschland GmbH & Co. KG, priority 2010, dated 2016)
